Read-outs that look alike come from different tables or passages of the source.
What was measured:
RBL-2H3 cells = assay: Inhibition of serotonin liberation from IgE-sensitized RBL-2H3 cells after antigen stimulation; type: cell-based, rat; settings: Rattus norvegicus
Excerpt: IgE-sensitized RBL-2H3 cells (i.e., a cell line originating in rat cells) release and produce not only histamine and serotonin but also cytokines such as TNF α and prostaglandins which are inflammatory mediators after stimulation with IgE sepecific antibody. In this experimental system, inhibitory effects on various mediators release were examined by using serotonin as an indication.
The cells were beforehand labeled with [^3H]-labeled serotonin and, at the same time, sensitized with the IgE antibody. After incubating with the compounds of the present invention, the cells were stimulated with the specific antigen. Then the inhibitory activity of each compound was calculated from the amount of the [^3H]-labeled serotonin thus liberated into the medium and the amount of [^3H]-labeled serotonin liberated when no compound of the present invention was added.

human basophils = assay: Inhibition of mediator (histamine, peptide leukotriene) liberation from human basophils stimulated with mite antigen; type: cell-based; settings: enzyme immunoassay
Experimental: 6 ml of 6% dextran (for separating leukocytes, having a high molecular weight) was added to 20 ml of heparinized blood. After stirring well, the resulting mixture was allowed to stand at 37° C. for 30 min and thus erythrocytes were precipitated. The upper layer was taken up and phosphate buffered saline (D-PBS) was added thereto followed by centrifugation at 185 g for 8 minutes to give a crude leukocyte fraction. These cells were subjected to hypotonic hematolysis and then suspended in D-PBS(+) containing 0.1%-BSA. The resulting suspension was used in the subsequent experiment as the leukocyte fraction containing basophils. 0.4 ml of this cell suspension was preliminarily heated to 37° C. for 5 min and then 0.05 ml of a specimen solution was added thereto followed by a pretreatment at 37° C. for 15 min. Next, 0.05 ml of a mite antigen solution was added thereto to induce an antigen-antibody reaction. After 10 min, the reaction was ceased by ice-cooling. Then the reaction mixture was centrifuged at 185 g for 10 min and histamine and peptide leukotrienes in the resulting supernatant were determined by using enzyme immunoassay kits. From the results of the assay, the activities of the acridone derivatives of inhibiting the liberation of histamine and peptide leukotriene were determined.

[1] = [3H]-serotonin release, IgE-sensitized RBL-2H3 cells, antigen stimulation, read-out: IC50 (μM) in serotonin liberation from RBL-2H3 cells
[2] = histamine, read-out: IC50 (μM) in mediator liberation from human basophils: histamine
[3] = peptide leukotriene, read-out: IC50 (μM) in mediator liberation from human basophils: leukotriene

Compound	IC50 (RBL-2H3 cells; [1])	also measured
Cc1ccc2c(c1C)N(CCCN)c1ccccc1S2 [Example 1, 1,2-Dimethyl-10-(3-aminopropyl)phenothiazine]	5 µM	
Cc1ccc2c(c1C)N(Cc1cccc(CN)n1)c1ccccc1S2 [Example 3]	10 µM	
Cc1ccc2c(c1C)N(CCCN(CC(=O)O)Cc1ccccc1)c1ccccc1S2 [Example 5]	5 µM	
Cc1ccc2c(c1C)N(Cc1cccc(CNCc3ccccc3)n1)c1ccccc1S2 [Example 6]	10 µM	
Cc1ccc2c(c1C)N(Cc1cccc(CNCc3ncc[nH]3)n1)c1ccccc1S2 [Example 7]	8 µM	
Cc1ccc2c(c1C)N(CCCN)c1cc(CCO)ccc1[S+]2[O-] (centres unmarked) [Example 9]	< 1 µM	
Cc1ccc2c(c1C)N(CCCN)c1cc(Br)ccc1[S+]2[O-] (centres unmarked) [Example 10]	3 µM	
Cc1ccc2c(c1C)N(CCCNCc1cccc(C(=O)O)c1O)c1ccccc1[S+]2[O-] (centres unmarked) [Example 31]		IC50 (RBL-2H3 cells; RBL-2H3, read-out: IC50 (μM) in serotonin liberation from RBL-2H3 cells): 0.5 µM
COc1ccc(O)c(CNCCCN2c3ccccc3[S+]([O-])c3ccc(C)c(C)c32)c1O (centres unmarked) [Example 38]	8 µM	
Cc1ccc2c(c1C)N(CCCNCc1cc(Br)cc(F)c1O)c1ccccc1[S+]2[O-] (centres unmarked) [Example 40]	5 µM	
Cc1ccc2c(c1C)N(CCCNCc1cc(Br)cc(Cl)c1O)c1ccccc1[S+]2[O-] (centres unmarked) [Example 41]	5 µM	
Cc1ccc2c(c1C)N(CCCNCC1CC1)c1ccccc1[S+]2[O-] (centres unmarked) [Example 43]	4 µM	
Cc1ccc2c(c1C)N(CCCNCc1ccccc1Cl)c1ccccc1[S+]2[O-] (centres unmarked) [Example 52]	3 µM	
Cc1ccc2c(c1C)N(CCCNCc1ccccc1C(=O)O)c1ccccc1[S+]2[O-] (centres unmarked) [Example 55]	8 µM	
Cc1ccc2c(c1C)N(CCCNCc1ccccc1OCC(=O)O)c1ccccc1[S+]2[O-] (centres unmarked) [Example 56]	3 µM	
Cc1ccc2c(c1C)N(CCCNCc1cccc(-c3nnn[nH]3)c1)c1ccccc1[S+]2[O-] (centres unmarked) [Example 57]	2 µM	
Cc1ccc2c(c1C)N(CCCNCc1ncc[nH]1)c1ccccc1[S+]2[O-] (centres unmarked) [Example 63]	3 µM	

Compound	IC50 (RBL-2H3 cells; [1])	also measured
Cc1ccc2c(c1C)N(CCCNCc1nc3ccccc3s1)c1ccccc1[S+]2[O-] (centres unmarked) [Example 68]	4 µM	
Cc1ccc2c(c1C)N(CCCNCc1ccccn1)c1ccccc1[S+]2[O-] (centres unmarked) [Example 70]	2 µM	
Cc1cccc(CNCCCN2c3ccccc3[S+]([O-])c3ccc(C)c(C)c32)n1 (centres unmarked) [Example 71]	8 µM	
Cc1ccc2c(c1C)N(CCCNCc1ncco1)c1ccccc1[S+]2[O-] (centres unmarked) [Example 72]	8 µM	
Cc1ccc2c(c1C)N(CCCNCc1[nH]cnc1C)c1ccccc1[S+]2[O-] (centres unmarked) [Example 74]	2 µM	
Cc1ccc2c(c1C)N(CCCNCc1nccnc1Cl)c1ccccc1[S+]2[O-] (centres unmarked) [Example 75]	6 µM	
CCOC(=O)/C(C)=C/c1cc(OC)c(CNCCCN2c3ccccc3[S+]([O-])c3ccc(C)c(C)c32)s1 (centres unmarked) [Example 76]	3 µM	
COc1ncc(CNCCCN2c3ccccc3[S+]([O-])c3ccc(C)c(C)c32)c(OC)n1 (centres unmarked) [Example 78]	4 µM	
COc1cc(C(N)=O)sc1CNCCCN1c2ccccc2[S+]([O-])c2ccc(C)c(C)c21 (centres unmarked) [Example 79]	2 µM	
Cc1ccc2c(c1C)N(CCCNCc1ccccc1)c1ccc(C#N)cc1[S+]2[O-] (centres unmarked) [Example 88]	1 µM	
COc1ccsc1CNCCCN1c2ccc(C#N)cc2[S+]([O-])c2ccc(C)c(C)c21 (centres unmarked) [Example 89]	2 µM	
COC(=O)c1cccc2c1[S+]([O-])c1ccc(C)c(C)c1N2CCCNCc1ccccc1 (centres unmarked) [Example 91]	5 µM	
Cc1ccc2c(c1C)N(CCCNCc1ccc(Cl)cc1Cl)c1cc(CCO)ccc1[S+]2[O-] (centres unmarked) [Example 93]	3 µM	
Cc1ccc2c(c1C)N(CCCNCc1ccc(F)cc1F)c1cc(CCO)ccc1[S+]2[O-] (centres unmarked) [Example 95]	3 µM	
Cc1ccc2c(c1C)N(CCCN(C)Cc1cccc(Cl)c1O)c1ccccc1[S+]2[O-] (centres unmarked) [Example 167]		IC50 (human basophils; [2]): 10 µM; IC50 (human basophils; [3]): 3 µM
Cc1ccc2c(c1C)N(CCCN(C)Cc1ccccc1O)c1cc(C(F)(F)F)ccc1[S+]2[O-] (centres unmarked) [Example 187]		IC50 (human basophils; [2]): 10 to 30 µM; IC50 (human basophils; [3]): 3 to 10 µM
